Measured values taken from patent US11628198B2, “Methods for prevention and treatment of acute renal injury” (Cornell University, priority 2008, dated 2023).
Where “and” joins values, the source holds several entries; their conditions need not be identical. Equal entries are not always repeated.

Assays:
Format in all cases: in vivo, rat
[1] = test system: contrast induced nephropathy in diabetic animal model; test: CIN in diabetic (HFD/STZ) rats with iohexol, Experiment 3; conditions: individual rats of Group C
Method: In this experiment, 20 SD rats were fed with high fat diet for 6 weeks, followed by the injection with low dose streptozotocin (35 mg/kg). After 15 more weeks, the rats were subjected to contrast induced nephropathy study. In addition, we included a normal control group was included in which 9 rats from the same batch on regular chow diet were subjected to the same protocol.
[…] The creatinine clearance was calculated based on the Scr, Ucr and urinary volume. Samples were analyzed by students t-test and differences were considered significant at p<0.05.

[2] = test system: ATP content in renal tissue; test: I/R model: ATP content assay of kidney tissue
Method: Sprague Dawley rats (250˜300 g) were assigned to four groups: (1) sham surgery group without I/R; (2) I/R+saline vehicle treatment; (3) I/R+SS-20 treatment; (4) I/R+SS-31 treatment. Each experimental group consisted of 8 rats. SS-20 and SS-31 (3 mg/kg, dissolved in saline) were administered to rats 30 min before ischemia and immediately before onset of reperfusion. The control rats were given saline alone on the same schedule.
Rats were anesthetized with a mixture of ketamine (90 mg/kg, i.p.) and xylazine (4 mg/kg, i.p.). The left renal vascular pedicle was occluded temporarily using a micro-clamp for 30 or 45 min. At the end of the ischemic period, reperfusion was established by removing of the clamp. At that time, the contralateral right kidney was removed. After 24 h reperfusion, animals were sacrificed and blood samples were obtained by cardiac puncture. Renal function was determined by blood urea nitrogen (BUN) and serum creatinine (BioAssay Systems DIUR-500 and DICT-500).
ATP Content Assay: The kidney tissue was immediately put into 10 ml 5% trichloroacetic acid with 10 mM DTT, 2 mM EDTA and cut into small pieces. The tissue was homogenized on ice, incubated for another 10 min, centrifuged for 10 min at 2000×g, and neutralized with 10N KOH to pH 7.6. After centrifugation for 10 min at 2000×g, aliquots of the resulting supernatant were stored at −80° C. ATP was measured by bioluminescence (ATP bioluminescent kit, Sigma, MO, USA).

[3] = test system: CIN in glycerol-induced rhabdomyolysis animal model; test: CIN in glycerol-induced rhabdomyolysis model, Experiment 1
Method: In this model, SD rats with body weight of 300-400 g were dehydrated for 24 h followed by i.m. injection of 25% glycerol solution (v/v) at the dose of 10 ml/kg. Twenty-four hours (24 h) later, the rats were grouped and subjected to a contrast induced nephropathy study protocol as detailed in FIG. 20. The effects of SS-31 on ARI can be examined by comparing the renal functions in animals from group C with those from group B. Samples were analyzed by students t-test and differences were considered significant at p<0.05.
(§1) Renal function: Renal function was assessed by determining serum and urinary creatinine using Jiancheng Cr kit (Nanjing, P.R.C) at baseline, 24 h after dehydration and 48 h post the contrast dye administration. The creatinine clearance was calculated based on the Scr, Ucr and urinary volume. Urinary microalbumin concentration was determined by a competition ELISA assay.

[4] = test system: CIN in glycerol-induced rhabdomyolysis animal model; test: CIN in glycerol-induced rhabdomyolysis model, Experiment 2
Method: SD rats with body weight of 300-400 grams were dehydrated for 24 h followed by i.m. injection with 25% glycerol solution (v/v) at the dose of 10 ml/kg. Twenty-four hours later, the rats were grouped and subjected to contrast induced nephropathy study protocol. Sixteen SD rats with body weight of 300-350 g were randomized into three groups with the doses, dosing schedules and study protocol presented in FIG. 23. The effects of SS-31 on ARI can be examined by comparing the renal functions in animals from group A with that from group B. Samples were analyzed by Student's t-test and differences were considered significant at p<0.05.
as §1, with “protein” for “microalbumin”, “Bradford Protein Assay kit (Sigma, St. Louis, Mo.).” for “a competition ELISA assay.”

In the case of D-Arg-2′6′Dmt-Lys-Phe-NH2 [SS-31], the “Scr T22h” value ([1]; T22h post dye) was 25 μM (2×) and 26 μM and 24 μM and 27 μM and 28 μM and 30 μM and 35 μM and 19 μM, the “Scr % change T22” value ([1]; T22h vs Tb) was 0% and 4% and −11% and 9% and −7% and 17% and 20% and 40% and −34% and the “Scr Tb” value ([1]; baseline) was 25 μM (4×) and 27 μM and 23 μM and 29 μM (2×) and 24 μM. For the same substance, the “ATP content in renal tissue” value ([2]; 1 h reperfusion following 45 min ischemia, vs vehicle) was “significantly higher”, the “ATP content in renal tissue” value ([2]; end of 15 min ischemia) was “not altered” and the urinary microalbumin level ([3]; T0, after 24 h dehydration, no peptide treatment at this time point) was 757.7±462.9 μg/24 h. For the same substance, the total albuminuria ([3]; T2, compared to the vehicle treated group) was “decreased significantly”, the “PAS staining of kidney” value ([3]; glycerin, dye) was “intact brush borders, normal glomeruli and minimum protein cast in the tubular cells” and the “reduction of creatinine clearance” value ([4]; 48 h post dye) was 13%. For the same substance, the “24 h urinary protein level” value ([4]; T0 (24 h post glycerin), no peptide yet) was 50.2 ± 8.6 mg, the “24 h urinary protein level” value ([4]; T1 (48 h post glycerin and 24 hrs post dye)) was 39.5 ± 3.5 mg and the “24 h urinary protein level” value ([4]; Tb (baseline), no peptide yet) was 15.5 ± 1.5 mg. The “PAS staining of kidney” value ([4]; glycerin, dye) was “intact brush borders, normal glomeruli and minimum protein cast in the tubular cells”.
